Measured values as given in BindingDB's records for doi:10.1016/j.bmcl.2005.05.101 (Glaxosmithkline, 2005).

Assays:
[1] = molecular target: T1, Dimer of Gag-Pol polyprotein [501-599,Q508K,L534I,L564I,C568A,C596A] (Human immunodeficiency virus 1, UniProt P03367, C568A/C596A/L534I/L564I/Q508K); assay: Protease Inhibition Assay
T1 construct: 501-599
Experimental: The Ki values were determined using fluorogenic substrate, 2-(aminobenzoyl)-Thr-Ile-Nle-Phe(p-NO2)-Gln-ArgNH2. A standard curve relating changes in fluorescent intensity to changes in concentration of product was used to convert fluorescent changes into molar velocities. The amount of cleavage was determined by HPLC.

[2] = molecular target: T1, Dimer of Gag-Pol polyprotein [501-599,Q508K,L534I,L564I,C568A,C596A]; assay: Protease Inhibition Assay; conditions: pH 6.8; 25 °C

| Compound | Ki [1] | IC50 [2] | Ki ([1]; pH 6.8, 25 °C) |
| --- | --- | --- | --- |
| O=C(N[C@@H](Cc1ccccc1)[C@H](O)CN(OC1CCCCC1)S(=O)(=O)c1ccc2c(c1)OCO2)O[C@H]1CO[C@H]2OCC[C@H]21 [(3R,3aS,6aR)-hexahydrofuro[2,3-b]furan-3-yl N-[(2S,3R)-4-[2H-1,3-benzodioxole-5-(cyclohexyloxy)sulfonamido]-3-hydroxy-1-phenylbutan-2-yl]carbamate] | < 5 pM | – | – |
| O=C(N[C@@H](Cc1ccccc1)[C@H](O)CN(OC1CCCC1)S(=O)(=O)c1ccc2c(c1)OCO2)O[C@H]1CO[C@H]2OCC[C@H]21 [(3R,3aS,6aR)-hexahydrofuro[2,3-b]furan-3-yl N-[(2S,3R)-4-[2H-1,3-benzodioxole-5-(cyclopentyloxy)sulfonamido]-3-hydroxy-1-phenylbutan-2-yl]carbamate] | < 5 pM | – | – |
| Nc1cccc(S(=O)(=O)N(C[C@@H](O)[C@H](Cc2ccccc2)NC(=O)O[C@H]2CO[C@H]3OCC[C@H]32)OC2CCCC2)c1 [(3R,3aS,6aR)-hexahydrofuro[2,3-b]furan-3-yl N-[(2S,3R)-4-[(3-aminobenzene)(cyclopentyloxy)sulfonamido]-3-hydroxy-1-phenylbutan-2-yl]carbamate] | < 5 pM | – | – |
| Nc1ccc(S(=O)(=O)N(C[C@@H](O)[C@H](Cc2ccccc2)NC(=O)O[C@H]2CO[C@H]3OCC[C@H]32)OC2CCCC2)cc1 [(3R,3aS,6aR)-hexahydrofuro[2,3-b]furan-3-yl N-[(2S,3R)-4-[(4-aminobenzene)(cyclopentyloxy)sulfonamido]-3-hydroxy-1-phenylbutan-2-yl]carbamate] | < 5 pM | – | – |
| O=C(N[C@@H](Cc1ccccc1)[C@H](O)CN(OC1CCCCC1)S(=O)(=O)c1ccc2c(c1)OCCO2)O[C@H]1CO[C@H]2OCC[C@H]21 [(3R,3aS,6aR)-hexahydrofuro[2,3-b]furan-3-yl N-[(2S,3R)-4-[(cyclohexyloxy)(2,3-dihydro-1,4-benzodioxine-6-)sulfonamido]-3-hydroxy-1-phenylbutan-2-yl]carbamate] | < 5 pM | – | – |
| O=C(N[C@@H](Cc1ccccc1)[C@H](O)CN(OC1CCCCC1)S(=O)(=O)c1ccc(O)cc1)O[C@H]1CO[C@H]2OCC[C@H]21 [(3R,3aS,6aR)-hexahydrofuro[2,3-b]furan-3-yl N-[(2S,3R)-4-[(cyclohexyloxy)(4-hydroxybenzene)sulfonamido]-3-hydroxy-1-phenylbutan-2-yl]carbamate] | < 5 pM | – | – |
| COc1ccc(S(=O)(=O)N(C[C@@H](O)[C@H](Cc2ccccc2)NC(=O)O[C@H]2CCOC2)OC2CCCC2)cc1 [(3S)-oxolan-3-yl N-[(2S,3R)-4-[(cyclopentyloxy)(4-methoxybenzene)sulfonamido]-3-hydroxy-1-phenylbutan-2-yl]carbamate] | – | 738 nM | 190 pM |
| COc1ccc(S(=O)(=O)N(C[C@@H](O)[C@H](Cc2ccccc2)NC(=O)[C@@H](NC(=O)c2ccc3ccccc3n2)C(N)=O)OC2CCCC2)cc1 [N-alkoxysulfonamide analog entry j] | – | 24 nM | < 5 pM |
| COc1ccc(S(=O)(=O)N(C[C@@H](O)[C@H](Cc2ccccc2)NC(=O)O[C@H]2CO[C@H]3OCC[C@H]32)OC2CCCC2)cc1 [N-alkoxysulfonamide analog entry k] | – | 6 nM | < 5 pM |
| O=C(N[C@@H](Cc1ccccc1)[C@H](O)CN(OC1CCCC1)S(=O)(=O)c1ccc(O)cc1)O[C@H]1CO[C@H]2OCC[C@H]21 [N-alkoxysulfonamide analog entry n] | < 5 pM | – | – |
| O=C(N[C@@H](Cc1ccccc1)[C@H](O)CN(OC1CCCC1)S(=O)(=O)c1ccc2c(c1)OCCO2)O[C@H]1CO[C@H]2OCC[C@H]21 [N-alkoxysulfonamide analog entry p] | < 5 pM | – | – |
| COc1ccc(S(=O)(=O)N(C[C@@H](O)[C@H](Cc2ccccc2)NC(=O)O[C@H]2CO[C@H]3OCC[C@H]32)OC2CCCCC2)cc1 [N-alkoxysulfonamide analog entry q] | < 5 pM | – | – |
| COC(=O)N[C@H](C(=O)N[C@@H](Cc1ccccc1)[C@H](O)CN(OC1CCCC1)S(=O)(=O)c1ccc(OC)cc1)C(C)(C)C [methyl N-[(1S)-1-{[(2S,3R)-4-[(cyclopentyloxy)(4-methoxybenzene)sulfonamido]-3-hydroxy-1-phenylbutan-2-yl]carbamoyl}-2,2-dimethylpropyl]carbamate] | – | 203 nM | – |
